According to ChEMBL document CHEMBL1135394, “Improvement in the selectivity and metabolic stability of the serotonin 5-HT(1A) ligand, S 15535: a series of cis- and trans-2-(arylcycloalkylamine) 1-indanols” (J Med Chem, 2002):

Experiments:
[1] = molecular target: T1, 5-hydroxytryptamine receptor 1A (Rattus norvegicus) (UniProt P19327); test: Antagonistic activity at postsynaptic 5-hydroxytryptamine 1A receptor was measured by its ability to inhibit hypothermia elicited by s.c. administration of 8-OH-DPAT in rat;ranges from (0.45-4.51); assay type: functional, organism-based
T1 sequence (whole entry): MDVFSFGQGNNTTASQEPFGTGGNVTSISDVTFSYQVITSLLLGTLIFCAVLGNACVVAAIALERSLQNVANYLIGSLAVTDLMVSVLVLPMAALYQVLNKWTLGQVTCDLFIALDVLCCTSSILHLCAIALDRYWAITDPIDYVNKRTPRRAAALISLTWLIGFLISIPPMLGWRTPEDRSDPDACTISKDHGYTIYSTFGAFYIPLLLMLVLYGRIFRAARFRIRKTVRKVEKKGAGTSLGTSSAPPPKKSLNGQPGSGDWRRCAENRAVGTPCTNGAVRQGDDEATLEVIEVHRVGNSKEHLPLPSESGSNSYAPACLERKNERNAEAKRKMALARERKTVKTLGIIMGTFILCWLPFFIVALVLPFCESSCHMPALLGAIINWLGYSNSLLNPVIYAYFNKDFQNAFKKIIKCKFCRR

[2] = Selectivity ratio towards Alpha-1 adrenergic receptor to human 5-hydroxytryptamine 1A receptor
[3] = In vitro oral metabolic bioavailability after incubation with hepatic microsomes; assay type: ADME, Liver; details: read-out: MF
[4] = molecular target: T1, 5-hydroxytryptamine receptor 1A (Rattus norvegicus); test: Antagonistic activity at postsynaptic 5-hydroxytryptamine 1A receptor was measured by its ability to inhibit hypothermia elicited by s.c. administration of 8-OH-DPAT in rat;ranges is not computable; assay type: functional, organism-based
[5] = molecular target: T2, 5-hydroxytryptamine receptor 1A (Homo sapiens, UniProt P08908); test: Binding affinity at human 5-hydroxytryptamine 1A receptor by inhibition of [3H]8-OH-DPAT binding in Chinese hamster ovary cell line; assay type: cell-based
T2 sequence (P08908 whole entry): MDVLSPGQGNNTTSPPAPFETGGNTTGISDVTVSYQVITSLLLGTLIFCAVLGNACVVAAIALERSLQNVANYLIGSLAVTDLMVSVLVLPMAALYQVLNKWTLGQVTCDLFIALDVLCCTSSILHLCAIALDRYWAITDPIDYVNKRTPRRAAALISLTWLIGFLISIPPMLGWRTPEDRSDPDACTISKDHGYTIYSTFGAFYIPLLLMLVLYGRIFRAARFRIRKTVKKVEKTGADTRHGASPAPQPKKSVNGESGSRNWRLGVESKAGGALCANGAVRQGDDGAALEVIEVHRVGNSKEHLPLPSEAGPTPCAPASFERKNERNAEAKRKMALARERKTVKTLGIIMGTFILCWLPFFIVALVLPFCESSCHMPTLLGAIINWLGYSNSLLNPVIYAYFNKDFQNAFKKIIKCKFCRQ

[6] = molecular target: T3, Adrenergic receptor alpha-1 (Rattus norvegicus, UniProt P15823+P23944+P43140); test: Binding affinity at Alpha-1 adrenergic receptor by inhibition of [3H]-prazosin binding to rat cortex
T3 sequence (P15823 whole entry): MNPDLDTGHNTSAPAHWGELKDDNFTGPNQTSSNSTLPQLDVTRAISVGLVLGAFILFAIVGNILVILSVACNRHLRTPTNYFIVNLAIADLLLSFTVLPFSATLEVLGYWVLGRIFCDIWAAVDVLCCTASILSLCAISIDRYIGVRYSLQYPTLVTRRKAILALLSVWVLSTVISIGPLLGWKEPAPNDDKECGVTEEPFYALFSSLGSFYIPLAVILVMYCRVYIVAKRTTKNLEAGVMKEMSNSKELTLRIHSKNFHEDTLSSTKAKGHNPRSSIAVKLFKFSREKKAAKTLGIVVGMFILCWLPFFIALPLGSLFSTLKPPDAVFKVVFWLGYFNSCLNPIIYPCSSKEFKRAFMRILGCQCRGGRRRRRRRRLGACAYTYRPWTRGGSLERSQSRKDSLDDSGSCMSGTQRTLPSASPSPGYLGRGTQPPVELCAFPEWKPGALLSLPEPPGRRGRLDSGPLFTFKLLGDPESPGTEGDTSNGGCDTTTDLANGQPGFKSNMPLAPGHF
T3 sequence (P23944 whole entry): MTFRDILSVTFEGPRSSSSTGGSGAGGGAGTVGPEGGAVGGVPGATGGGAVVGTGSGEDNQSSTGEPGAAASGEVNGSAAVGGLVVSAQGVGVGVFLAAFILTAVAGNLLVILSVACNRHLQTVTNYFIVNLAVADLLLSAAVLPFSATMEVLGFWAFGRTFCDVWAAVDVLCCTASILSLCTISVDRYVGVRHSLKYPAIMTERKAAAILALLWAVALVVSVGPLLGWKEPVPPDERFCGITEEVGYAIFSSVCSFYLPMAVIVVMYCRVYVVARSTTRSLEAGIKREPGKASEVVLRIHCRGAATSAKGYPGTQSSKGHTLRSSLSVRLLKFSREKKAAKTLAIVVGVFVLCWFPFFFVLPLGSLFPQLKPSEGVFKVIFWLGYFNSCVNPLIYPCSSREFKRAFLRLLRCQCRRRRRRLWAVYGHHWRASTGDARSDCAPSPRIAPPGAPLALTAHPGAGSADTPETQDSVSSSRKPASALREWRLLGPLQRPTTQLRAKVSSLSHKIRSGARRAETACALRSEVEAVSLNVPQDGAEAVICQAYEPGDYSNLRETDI
T3 sequence (P43140 whole entry): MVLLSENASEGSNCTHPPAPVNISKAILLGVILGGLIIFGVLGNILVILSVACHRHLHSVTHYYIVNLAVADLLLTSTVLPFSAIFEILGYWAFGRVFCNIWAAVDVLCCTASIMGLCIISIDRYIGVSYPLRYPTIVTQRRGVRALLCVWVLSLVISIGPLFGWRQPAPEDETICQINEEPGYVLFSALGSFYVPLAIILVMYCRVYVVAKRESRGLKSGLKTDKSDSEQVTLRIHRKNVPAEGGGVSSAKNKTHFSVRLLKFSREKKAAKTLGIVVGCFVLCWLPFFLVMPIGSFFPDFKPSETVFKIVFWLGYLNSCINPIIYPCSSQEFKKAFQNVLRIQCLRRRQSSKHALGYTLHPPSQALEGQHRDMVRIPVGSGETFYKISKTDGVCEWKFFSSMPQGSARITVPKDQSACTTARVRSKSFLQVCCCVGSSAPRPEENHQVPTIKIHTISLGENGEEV

[7] = molecular target: T1, 5-hydroxytryptamine receptor 1A (Rattus norvegicus); test: Antagonistic activity at postsynaptic 5-hydroxytryptamine 1A receptor was measured by its ability to inhibit hypothermia elicited by s.c. administration of 8-OH-DPAT in rat;ranges from (0.40-4); assay type: functional, organism-based
[8] = molecular target: T1, 5-hydroxytryptamine receptor 1A (Rattus norvegicus); test: Antagonistic activity at postsynaptic 5-HT1A receptor was measured by its ability to inhibit hypothermia elicited by s.c. administration of 8-OH-DPAT in rat;ranges from (.26-3.52); assay type: functional, organism-based
[9] = molecular target: T4, 5-hydroxytryptamine receptor 1A (Homo sapiens) (UniProt P08908); test: Agonist efficacy of [35S]GTP-gamma-S, binding to 5-hydroxytryptamine 1A receptor compared with 5-HT; assay type: functional
T4 sequence (whole entry): T2 sequence (P08908 whole entry)

[10] = molecular target: T1, 5-hydroxytryptamine receptor 1A (Rattus norvegicus); test: Antagonistic activity at postsynaptic 5-hydroxytryptamine 1A receptor was measured by its ability to inhibit hypothermia elicited by s.c. administration of 8-OH-DPAT in rat;ranges from (0.50-5.30); assay type: functional, organism-based
[11] = molecular target: T1, 5-hydroxytryptamine receptor 1A (Rattus norvegicus); test: Antagonistic activity at postsynaptic 5-hydroxytryptamine 1A receptor was measured by its ability to inhibit hypothermia elicited by s.c. administration of 8-OH-DPAT in rat;ranges from (0.20-1.60); assay type: functional, organism-based
[12] = molecular target: T1, 5-hydroxytryptamine receptor 1A (Rattus norvegicus); test: Antagonistic activity at postsynaptic 5-hydroxytryptamine 1A receptor was measured by its ability to inhibit hypothermia elicited by s.c. administration of 8-OH-DPAT in rat;ranges from (2.20-30.5); assay type: functional, organism-based
[13] = molecular target: T1, 5-hydroxytryptamine receptor 1A (Rattus norvegicus); test: Antagonistic activity at postsynaptic 5-hydroxytryptamine 1A receptor was measured by its ability to inhibit hypothermia elicited by s.c. administration of 8-OH-DPAT in rat;ranges from (0.20-1.80); assay type: functional, organism-based
[14] = molecular target: T1, 5-hydroxytryptamine receptor 1A (Rattus norvegicus)

| Ratio [2] | Fh [3] | Ki [5] | Log Ki [6] | SMILES | also measured |
| --- | --- | --- | --- | --- | --- |
| 562 |  |  |  | O[C@@H]1c2ccc(F)cc2C[C@H]1N1CCN(c2cccc3c2OCCO3)CC1 (racemic) | ID50 [1]: 1.42 mg/kg |
| 332 | 51% | 2.14 nM | -6.15 | O[C@@H]1c2cc(F)c(F)cc2C[C@H]1N1CCN(c2cccc3c2OCCO3)CC1 (relative stereo) | ID50 [4]: 2.5 mg/kg |
| 575 | 21% | 1.62 nM | -6.03 | O[C@@H]1c2ccccc2C[C@H]1N1CCN(c2cccc3c2OCCO3)CC1 (relative stereo) | ID50 [8]: 0.96 mg/kg; Efficacy [9]: 52% |
| 55 |  | 1.1 nM | -7.22 | COc1ccc2c(c1)[C@@H](O)[C@H](N1CCC(c3cccc4c3OCCO4)CC1)C2 (relative stereo) | ID50 [13]: 0.6 mg/kg |
| 224 |  |  |  | COc1ccc2c(c1)C[C@@H](N1CCN(c3cccc4c3OCCO4)CC1)[C@@H]2O (racemic) | ID50 [14]: 0.72 mg/kg; Efficacy [9]: 21% |

More lines, now with the values behind:

| SMILES | Ratio [2] | Fh [3] | Ki [5] | Log Ki [6] | also measured |
| --- | --- | --- | --- | --- | --- |
| O[C@@H]1c2ccccc2C[C@H]1N1CC=C(c2cccc3c2OCCO3)CC1 (relative stereo) | 120 | 4% | 0.832 nM | -7 | ID50 [7]: 1.3 mg/kg |
| O[C@@H]1c2ccc(F)cc2C[C@H]1N1CC=C(c2cccc3c2OCCO3)CC1 (relative stereo) | 128 | 8% | 0.851 nM | -6.96 | ID50 [10]: 1.7 mg/kg |
| O[C@@H]1c2ccccc2C[C@H]1N1CCC(c2cccc3c2OCCO3)CC1 (relative stereo) | 112 | 7% | 0.708 nM | -7.1 | ID50 [11]: 0.5 mg/kg |
| O=[N+]([O-])c1ccc2c(c1)[C@@H](O)[C@H](N1CCC(c3cccc4c3OCCO4)CC1)C2 (relative stereo) | 389 | 22% | 0.288 nM | -6.95 | ID50 [12]: 8.1 mg/kg |
